What is called melting point is the temperature, or range, at which the solid turns liquid.

In the case of `COC(=O)Cc1ccccc1OCc1ccc(OCCc2nc(-c3ccccc3)oc2C)nc1` [Example 118, methyl 2-[2-[[6-[2-(5-methyl-2-phenyl-4-oxazolyl)ethoxy]-3-pyridyl]methoxy]phenyl]acetate], the melting point was in the range of 78 to 79 °C.

Regarding `COC(=O)Cc1ccccc1OCc1ccc(OCc2nc(-c3ccccc3)sc2C)nc1` [Example 121, methyl 2-[2-[[6-[(5-methyl-2-phenyl-4-thiazolyl)methoxy]-3-pyridyl]methoxy]phenyl]acetate], the melting point fell in the range of 119 to 120 °C.

In turn, `CC(Nc1nc(-c2ccccc2)cs1)c1ccc(COc2ccc(CC(=O)O)cc2)cc1` (stereo not drawn) [Example 128, 4-[4-[methyl(4-phenyl-2-thiazolyl)aminomethyl]benzyloxy]phenylacetic acid] showed a melting point of 116 to 118 °C.

`COC(=O)Cc1cccc(OCc2ccc(OC)c(OCc3nc(-c4ccccc4)oc3C)c2)c1` [Example 131, methyl 3-[4-methoxy-3-[(2-phenyl-5-methyl-4-oxazolyl)methoxy]benzyloxy]phenylacetate] registered a melting point of 88 to 89 °C.

With `Cc1oc(-c2ccccc2)nc1COc1ccc(COc2ncccc2C=CC(=O)O)cc1` [Example 134, 3-[2-[4-[(5-methyl-2-phenyl-4-oxazolyl)methoxy]benzyloxy]-3-pyridyl]propenoic acid], the melting point was 174 to 175 °C.

`CCOC(=O)C=Cc1cccnc1OCc1ccc(OCc2nc(-c3ccco3)oc2C)c(OC)c1` [Example 135, ethyl 3-[2-[4-[[2-(2-furyl)-5-methyl-4-oxazolyl]methoxy]-3-methoxybenzyloxy]-3-pyridyl]propenoate] yielded a melting point of 85 to 87 °C.

The molecule `Cc1oc(-c2ccccc2)nc1COc1cccc(CSc2cccc(CC(=O)O)c2)c1` [Example 139, 2-[3-[3-[(5-methyl-2-phenyl-4-oxazolyl)methoxy]benzylthio]phenyl]acetic acid] registered a melting point of 81 to 82 °C.

As for `Cc1oc(-c2ccccc2)nc1COc1cccc(CSc2cccc(CCC(=O)O)c2)c1` [Example 140, 3-[3-[3-[(5-methyl-2-phenyl-4-oxazolyl)methoxy]benzylthio]phenyl]propionic acid], the melting point fell in the range of 120 to 121 °C.

As to `Cc1oc(-c2ccccc2)nc1COc1cccc(CSc2ccc(CC(=O)O)cc2Cl)c1` [Example 142, 2-[3-chloro-4-[3-[(5-methyl-2-phenyl-4-oxazolyl)methoxy]benzylthio]phenyl]acetic acid], the melting point lay within 150 to 151 °C.

The record behind these values is patent US7238716B2, “Alkanoic acid derivatives process for their production and use thereof” (Takeda Pharmaceuticals Company Limited, priority 2000, dated 2007).
